Data taken from patent publication US9920010B2, “CXCR7 receptor modulators” (IDORSIA PHARMACEUTICALS LTD, priority 2013, dated 2018).

biological target: T1, CXCR7 (Homo sapiens, UniProt P25106); assay: PathHunter CHO-K1 CXCR7 b-arrestin recruitment assay (CXCR7 agonistic activity); format: cell-based; conditions: PathHunter CHO-K1 CXCR7 b-arrestin cell line
T1 construct: host or cells: CHO-K1 (PathHunter CHO-K1 CXCR7 b-arrestin cell line, stably transfected)
Description: The CXCl12 receptor and CXCR7 agonistic activities of the compounds of formula (I) are determined in accordance with the following experimental method.
The assay is using the PathHunter™ CHO-K1 CXCR7 b-arrestin cell line from DiscoverX. The system is based on the Enzyme Fragment Complementation Technology. Two complementing fragments of the b-galactosidase enzyme are expressed within stably transfected cells. The larger portion of b-gal, termed EA for Enzyme Acceptor, is fused to the C-terminus of b-arrestin 2. The smaller fragment, termed ProLink™ tag, is fused to CXCR7 at the C-terminus. Upon activation, b-arrestin is recruited which forces the interaction of ProLink and EA, allowing complementation of the two fragments of b-gal and the formation of a functional enzyme which is capable of hydrolysing the substrate and generating a chemiluminescent signal.
CHO-K1 CXCR7 b-arrestin cells are detached from culture dishes with a cell dissociation buffer (Invitrogen, #13151-014) and collected in growing medium (F12 HAMS 90% (v/v)/FCS 10% (v/v), Penicillin/streptomycin 1% (v/v)). 5000 cells per well (in 20 μl) are seeded in a 384 well plate (white-walled, clear bottom; BD Falcon #353274). The plate is incubated at 37° C./5% CO2 for 24 hours. Medium is then replaced by 20 μl OPTIMEM (Invitrogen #31985) for 3 to 4 hours. Test compounds are dissolved at 10 mM in DMSO and serially diluted in DMSO to 200× of the final concentration for dose response curves. Compounds are then diluted 1:33.3 in HBSS1×. 5 μl/well of HBSS1×/20 mM HEPES/0.2% BSA are added to the assay plate followed by addition of 5 μl/well of diluted compounds. CXCL12 (Peprotech #300-28A) may be used as a reference agonist. The plate is incubated for 90 minutes at 37° C. 12 μl of detection reagent (Path Hunter Detection Kit, DiscoveRx, #93-0001) is transferred to the assay plate and to the plate is incubated for 1 hour at room temperature. Luminescent signal is read in a microplate reader (FLUOstar Optima, bmg). The calculated EC50 values may fluctuate depending on the daily cellular assay performance. Fluctuations of this kind are known to those skilled in the art. Average EC50 values from several measurements are given as geometric mean values.

T1 sequence (P25106 whole entry): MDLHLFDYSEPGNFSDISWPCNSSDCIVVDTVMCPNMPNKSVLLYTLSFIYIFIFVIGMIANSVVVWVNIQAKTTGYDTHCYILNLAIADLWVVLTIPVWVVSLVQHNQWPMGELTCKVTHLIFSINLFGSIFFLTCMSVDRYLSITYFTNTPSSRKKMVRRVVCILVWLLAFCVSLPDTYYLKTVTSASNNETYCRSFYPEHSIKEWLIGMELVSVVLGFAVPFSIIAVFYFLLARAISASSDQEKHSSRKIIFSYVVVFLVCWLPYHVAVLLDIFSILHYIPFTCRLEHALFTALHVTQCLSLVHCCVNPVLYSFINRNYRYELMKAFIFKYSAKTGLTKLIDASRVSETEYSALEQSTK
T1 sequence (P32121 whole entry partner): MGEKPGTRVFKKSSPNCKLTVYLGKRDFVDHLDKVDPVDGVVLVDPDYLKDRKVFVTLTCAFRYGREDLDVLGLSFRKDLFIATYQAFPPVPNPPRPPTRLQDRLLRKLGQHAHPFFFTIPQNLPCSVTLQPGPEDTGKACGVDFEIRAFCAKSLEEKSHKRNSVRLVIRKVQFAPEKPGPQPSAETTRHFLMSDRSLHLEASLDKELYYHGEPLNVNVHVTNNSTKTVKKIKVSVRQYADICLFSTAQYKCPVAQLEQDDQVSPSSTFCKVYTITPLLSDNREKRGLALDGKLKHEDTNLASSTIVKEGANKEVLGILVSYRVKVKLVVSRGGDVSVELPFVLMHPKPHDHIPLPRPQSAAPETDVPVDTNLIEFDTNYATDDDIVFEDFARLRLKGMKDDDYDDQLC

SMILES | EC50 [nM]
CN(C)CCN(Cc1ccccc1C(F)(F)F)C(=O)/C=C/c1cccc2c1CCN(CC1CC1)C2 [compound 150, (E)-3-(2-Cyclopropylmethyl-1,2,3,4-tetrahydro-isoquinolin-5-yl)-N-(2-dimethylamino-ethyl)-N-(2-trifluoromethyl-benzyl)-acrylamide] | 1
CN(C)CCN(Cc1ccccc1C(F)(F)F)C(=O)CCc1cccc2c1CCN(C(=O)OC(C)(C)C)C2 [Example 99, 5-{2-[(2-Dimethylamino-ethyl)-(2-trifluoromethyl-benzyl)-carbamoyl]-ethyl}-3,4-dihydro-1H-isoquinoline-2-carboxylic acid tert-butyl ester] | 177
CCOC(=O)CN(Cc1ccccc1)C(=O)/C=C/c1cccc2c1CCN(CC1CC1)C2 [compound 144, {Benzyl-[(E)-3-(2-cyclopropylmethyl-1,2,3,4-tetrahydro-isoquinolin-5-yl)-acryloyl]-amino}-acetic acid ethyl ester] | 22
CN(CCN(Cc1ncccc1C(F)(F)F)C(=O)CNc1cccc2c1CN(CC1CC1)CC2)CC(F)(F)F [compound 477] | 63
COCCN1CCc2c(cccc2NCC(=O)N(CCN(C)CCF)Cc2ccccc2C(F)(F)F)C1 [Example 302, N-{2-[(2-Fluoro-ethyl)-methyl-amino]-ethyl}-2-[2-(2-methoxy-ethyl)-1,2,3,4-tetrahydro-isoquinolin-5-ylamino]-N-(2-trifluoromethyl-benzyl)-acetamide] | 27
CN(C)CCN(Cc1ccccc1)C(=O)CCc1cccc2c1CCN(CC1CC1)C2 [compound 161, N-Benzyl-3-(2-cyclopropylmethyl-1,2,3,4-tetrahydro-isoquinolin-5-yl)-N-(2-dimethylamino-ethyl)-propionamide] | 4
C/C(=C\c1ccccc1)CN(CCC1CCCN1C)C(=O)CNc1cccc2c1CCN(CC1CC1)C2 (racemic) [Example 61, rac-2-(2-Cyclopropylmethyl-1,2,3,4-tetrahydro-isoquinolin-5-ylamino)-N-((E)-2-methyl-3-phenyl-allyl)-N-[2-(1-methyl-pyrrolidin-2-yl)-ethyl]-acetamide] | 5
O=C(CNc1cccc2c1CCN(CC1CC1)C2)N(Cc1cncs1)Cc1ccccc1C(F)(F)F [Example 247, 2-(2-Cyclopropylmethyl-1,2,3,4-tetrahydro-isoquinolin-5-ylamino)-N-thiazol-5-ylmethyl-N-(2-trifluoromethyl-benzyl)-acetamide] | 29
CCN1CCc2cccc(NCC(=O)N(Cc3ccccc3C(F)(F)F)C3CCN(C)CC3)c2C1 [compound 492, 2-(2-Ethyl-1,2,3,4-tetrahydro-isoquinolin-8-ylamino)-N-(1-methyl-piperidin-4-yl)-N-(2-trifluoromethyl-benzyl)-acetamide] | 41
CN(C)CCN(Cc1ccccc1C(F)(F)F)C(=O)CNc1cccc2c1CCN(C(=O)[C@H]1C[C@H]1F)C2 (racemic) [Example 363, rac-N-(2-Dimethylamino-ethyl)-2-[2-((1R*,2R*)-2-fluoro-cyclopropanecarbonyl)-1,2,3,4-tetrahydro-isoquinolin-5-ylamino]-N-(2-trifluoromethyl-benzyl)-acetamide] | 3
CN(C)CCN(Cc1ccccc1C(F)(F)F)C(=O)CNc1cccc2c1CCN(C(=O)C1(C(F)(F)F)CC1)C2 [Example 571, N-(2-Dimethylamino-ethyl)-N-(2-trifluoromethyl-benzyl)-2-[2-(1-trifluoromethyl-cyclopropanecarbonyl)-1,2,3,4-tetrahydro-isoquinolin-5-ylamino]-acetamide] | 86
CNCCN(Cc1ccccc1Br)C(=O)CNc1cccc2c1CCN(CC1CC1)C2 [compound 435, N-(2-Bromo-benzyl)-2-(2-cyclopropylmethyl-1,2,3,4-tetrahydro-isoquinolin-5-ylamino)-N-(2-methylamino-ethyl)-acetamide] | 7
COCCN1CCc2c(cccc2NCC(=O)N(Cc2ccccc2C(F)(F)F)CC(O)COC)C1 (centres unmarked) [Example 299, N-(2-Hydroxy-3-methoxy-propyl)-2-[2-(2-methoxy-ethyl)-1,2,3,4-tetrahydro-isoquinolin-5-ylamino]-N-(2-trifluoromethyl-benzyl)-acetamide] | 291
O=C(CNc1cccc2c1CCN(CC1CC1)C2)N(Cc1ccccc1C(F)(F)F)C1CCC(O)CC1 (centres unmarked) [Example 222, 2-(2-Cyclopropylmethyl-1,2,3,4-tetrahydro-isoquinolin-5-ylamino)-N-(4-hydroxy-cyclohexyl)-N-(2-trifluoromethyl-benzyl)-acetamide] | 27
CCC(=O)N1CCc2c(cccc2NCC(=O)N(Cc2ccccc2)Cc2nccn2C)C1 [Example 26, N-Benzyl-N-(1-methyl-1H-imidazol-2-ylmethyl)-2-(2-propionyl-1,2,3,4-tetrahydro-isoquinolin-5-ylamino)-acetamide] | 442
CC(c1ccccc1C(F)(F)F)N(CCN(C)C)C(=O)CNc1cccc2c1CCN(CC1CC1)C2 (racemic) [Example 58, rac-2-(2-Cyclopropylmethyl-1,2,3,4-tetrahydro-isoquinolin-5-ylamino)-N-(2-dimethylamino-ethyl)-N-[1-(2-trifluoromethyl-phenyl)-ethyl]-acetamide] | 16
CN1CCCC(N(Cc2ccccc2C(F)(F)F)C(=O)CNc2cccc3c2CCN(C(=O)OC(C)(C)C)C3)C1 (racemic) [Example 11, rac-5-({[(1-Methyl-piperidin-3-yl)-(2-trifluoromethyl-benzyl)-carbamoyl]-methyl}-amino)-3,4-dihydro-1H-isoquinoline-2-carboxylic acid tert-butyl ester] | 52
O=C(CNc1cccc2c1CCN(CC1CC1)C2)N(Cc1ccccc1C(F)(F)F)CC1CCNC1 (racemic) [compound 441] | 5
CC(C)CCN(Cc1ccccc1)C(=O)COc1cccc2c1CCN(CC1CC1)C2 [compound 163, N-Benzyl-2-(2-cyclopropylmethyl-1,2,3,4-tetrahydro-isoquinolin-5-yloxy)-N-(3-methyl-butyl)-acetamide] | 17

Continued, values first:

EC50 [nM] | SMILES
6 | CN(C)CCN(Cc1ccccc1OC(F)(F)F)C(=O)CNc1cccc2c1CCN(CC1CC1)C2 [Example 227, 2-(2-Cyclopropylmethyl-1,2,3,4-tetrahydro-isoquinolin-5-ylamino)-N-(2-dimethylamino-ethyl)-N-(2-trifluoromethoxy-benzyl)-acetamide]
6 | CCN(CC)CCN(Cc1ccccc1C(F)(F)F)C(=O)CNc1cccc2c1CN(CC)CC2 [compound 514, N-(2-Diethylamino-ethyl)-2-(2-ethyl-1,2,3,4-tetrahydro-isoquinolin-8-ylamino)-N-(2-trifluoromethyl-benzyl)-acetamide]
1 | CN(C)CCN(Cc1ccccc1C(F)(F)F)C(=O)CNc1cccc2c1C(C)(C)CN(CC1CC1)C2 [Example 91, 2-(2-Cyclopropylmethyl-4,4-dimethyl-1,2,3,4-tetrahydro-isoquinolin-5-ylamino)-N-(2-dimethylamino-ethyl)-N-(2-trifluoromethyl-benzyl)-acetamide]
51 | CN(C)CCN(Cc1ccccc1)C(=O)CNc1cccc2c1CN(CC1CC1)C2 [Example 209, N-Benzyl-2-(2-cyclopropylmethyl-2,3-dihydro-1H-isoindol-4-ylamino)-N-(2-dimethylamino-ethyl)-acetamide]
101 | CC(C)OC(=O)N1CCc2c(cccc2NCC(=O)N(CCN(C)C)Cc2ccccc2)C1 [compound 121]
32 | CCC(=O)N1CCc2c(cccc2NCC(=O)N(CCN(C)C)Cc2ccccc2)C1 [compound 111, N-Benzyl-N-(2-dimethylamino-ethyl)-2-(2-propionyl-1,2,3,4-tetrahydro-isoquinolin-5-ylamino)-acetamide]
1 | CCN(C)CCN(Cc1ccccc1C(F)(F)F)C(=O)CNc1cccc2c1CCN(CC1CC1)C2 [Example 231, 2-(2-Cyclopropylmethyl-1,2,3,4-tetrahydro-isoquinolin-5-ylamino)-N-[2-(ethyl-methyl-amino)-ethyl]-N-(2-trifluoromethyl-benzyl)-acetamide]
77 | CCN1CCc2cccc(NCC(=O)N(CCN(C)C)Cc3ccccc3OC)c2C1 [compound 497]
63 | CCN1CCc2cccc(NCC(=O)N(CCN(C)C)Cc3cccc(C)c3)c2C1 [compound 495]
43 | CN(C)CCN(CCc1cccc(C(F)(F)F)c1)C(=O)CNc1cccc2c1CCN(CC1CC1)C2 [Example 55, 2-(2-Cyclopropylmethyl-1,2,3,4-tetrahydro-isoquinolin-5-ylamino)-N-(2-dimethylamino-ethyl)-N-[2-(3-trifluoromethyl-phenyl)-ethyl]-acetamide]
